# Assay results taken from patent publication US20230172994A1, “METHODS OF PROMOTING VASCULOGENESIS” (TissueTech, Inc., priority 2019, published 2023).
# Legend:
# Type in all cases: cell-based, human
# [1] = tested on: HUVEC or pericytes (LNC); assay: Cell proliferation by Edu nuclear staining; settings: HUVEC or pericytes (LNC) alone
# From the text: Cells: GFP HUVEC (P3) were purchased from Neuromics (Cat #GF01). These cells were isolated from normal human umbilical vein and transfected with GFP-lentiviral particle at passage 1. Puromycin resistant GFP HUVEC were maintained on fibronectin coated solution in Endo-growth medium containing 5% FBS and growth supplement until passage 3. Cells were split 1:3 every three days when ˜70%-90% confluence is reached. Cells of passage 3-8 were used for all experiments.
# LNC (P2-P5) was expanded in MESCM containing 4 ng/ml bFGF and 10 ng/ml LIF on 6-well plastic coated with 5% Matrigel™
# [2] = tested on: P10 LNC; assay: Cell aggregation / sphere formation by phase contrast microscopy
# Description: (§1) Cell culture: For time course study, 1×10^5/ml of P10 LNC was seeded on three substrates: 3D Matrigel™, HA, or HC-HA/PTX3 in MESCM at 5, 15, 30, 60 mins, 24 h and 48 h (Table 2).
# For expansion, single cells derived from limbal clusters or CSC after digestion with 0.25% trypsin and 1 mM EDTA (T/E) were seeded at 1×10^4/cm^2 in the 6-well plate pre-coated with 5% Matrigel™ in MESCM and cultured in humidified 5% CO2 with media change every 3-4 days for total 6-7 days. For cells culture in three-dimensional (3D) Matrigel, Matrigel was prepared by adding 50% Matrigel diluted in MESCM per chamber of an 8-well chamber slide following incubation at 37° C. for 60 min. LNC cells were seeded in 3D Matrigel and cultured for 24 h or 48 h in MESCM.
# (§2) For the siRNA knockdown, 80% confluent P10 LNC on 6-well coated MG were subjected to transfection by mixing 200 μL of serum-free, antibiotic-free MESCM with 4 μL of HiPerFect siRNA transfection reagent (Final dilution, 1:300) and 6 μL of 20 μM of scRNA or siRNAs for BMPR1A, BMPR1B, BMPR2, and ACVR1 at the final concentration of 100 nM, drop-wise, followed by culturing in 1 mL of fresh MESCM at 37° C. for 24 h before soluble HC-HA/PTX3 was added at a final concentration of 20 μg/mL in MESCM.
# [3] = tested on: P10 LNC; assay: Immunofluorescence staining (cytospin), nuclear translocation
# Description: Immunostaining: LNC were then subjected to cytospin to determine nuclear translocation of HIF1α, HIF1β, HIF2α, SDF-1, CXCR4, and Hes1 at 5, 15, 30 and 60 mins.
# Single cells of LNC or CSC at different passages were harvested with 0.05% trypsin and 1 mM EDTA at 37° C. for 10 min and prepared for cytospin using Cytofuge (StatSpin Inc., Norwood, Mass.) at 1000 g for 8 min. Cells were fixed with 4% formaldehyde, pH 7.0, for 15 min at room temperature, permeabilized with 0.2% Triton X-100 in PBS for 15 min and blocked with 2% bovine serum albumin (BSA) for 1 h before incubated with primary antibodies for 16 h at 4° C. After 3 washes with PBS, the corresponding Alexa Fluor-conjugated secondary IgG (all 1:100 dilution) were incubated for 60 min and 3 washing with PBS. After 3 washes with PBS, the second primary antibodies were incubated for 60 min and followed with the corresponding Alex Fluor-conjugated secondary IgG. The nucleus was counterstained with Hoechst 33342 before being analyzed with Zeiss LSM 700 confocal microscope (Carl Zeiss, Thornwood, N.Y.). Corresponding mouse and rabbit sera were used as negative controls for primary monoclonal and polyclonal antibodies, respectively.
# [4] = tested on: P4 LNC; assay: as above
# Description: Cell culture: For time course study, 1×10^5/ml of P4 LNC were seeded on substrates HA or HC-HA/PTX3 in MESCM at 5, 15, 30, 60 min, 24 h and 48 h (Table 3).
# Immunostaining: LNC then were subjected to cytospin to determine nuclear translocation of HIF1α, HIF1β, HIF2α, SDF-1, CXCR4, and Hes1 at 5, 15, 30 and 60 min.
# [5] = tested on: Rac1; assay: Rho GTPase activity in LNC; settings: within 60 minutes, HC-HA/PTX3 active at 5 and 15 min, reduced at 30 min
# [6] = tested on: P10 LNC; assay: Time course mRNA expression by qPCR
# Description: as §1
# qPCR: Comparisons were made of mRNA expression of HIF1α, HIF1β, HIF2α, SDF-1, CXCR4, Hes1 at 5, 15, 30, 60, 120, 240 min or 24 and 48 h.
# Cell culture: 1×10^5/ml of P10 LNC was seeded on three substrates: 3D Matrigel™ HA, or HC-HA/PTX3 in MESCM for 48 h. For time course study on HC-HA/PTX3, P10 LNC will be treated HC-HA/PTX3 for 5, 15, 30, 60 mins, 24 h and 48 h.
# qPCR: Comparison mRNA expression VEGF, PDGFα, CD31 and IGF-1 for angiogenesis and NGF and p75^NTR for neurogenesis at 5, 15, 30, 60, 120, 240 min 24 or 48 h on 3D MG, immobilized HA and immobilized HC-HA/PTX3.
# as §2
# Total RNAs were extracted from expanded LNC by RNeasy Mini Kit (Qiagen, Valencia, Calif.) according to manufacturer's guideline and 1-2 ug of RNA extract was reverse transcribed to cDNA with reverse-transcribed using Applied Biosystem™ High Capacity Reverse Transcription Kit (Thermo Fisher, Santa Clara, Calif.) using primers. The resultant cDNAs were amplified by specific TaqMan gene expression assay mix and universal PCR master mix in QuantStudio™ 5 Real Time PCR System (Thermo Fisher, Santa Clara, Calif.) with real-time RT-PCR profile consisting of 10 min of initial activation at 95° C., followed by 40 cycles of 15 sec denaturation at 95° C., and 1 min annealing and extension at 60° C. […] Threshold cycle number (Ct) was calculated with QuantStudio Design and. […] The relative gene expression data were analyzed by the comparative CT method (ΔΔCT). […]
# [7] = tested on: P10 LNC; assay: Subcellular fractionation and Western blotting
# Description: Nuclear and cytoplasmic fractions were prepared using the NE-PER® Nuclear and Cytoplasmic Extraction Reagents Kit (Pierce, Rockford, Ill., USA) as per manufacturer's instruction. Briefly, the treated P10 LNC were washed once on cold PBS and centrifuged at 500 g for 5 min.
# The cell pellet was suspended in 100 μL of cytoplasmic extraction reagent I containing protease inhibitor by vortexing. The suspension was incubated on ice for 10 min followed by the addition of 6 μL of a second cytoplasmic extraction reagent II, vortexed for 5s, incubated on ice for 1 min and centrifuged for 5 min at 16 000 g. The supernatant fraction (cytoplasmic extract) was transferred to a pre-chilled tube. The insoluble pellet fraction, which contains crude nuclei, was resuspended in 50 μL of nuclear extraction reagent by vortexing during 15s three times and incubated on ice for 10 min each, then centrifuged for 10 min at 16 000 g. The resulting supernatant, constituting the nuclear extract, was used for the subsequent experiments. Protein concentration was quantitated using the BCA protein assay kit (Pierce). […] Immunoreactive proteins were detected with Western Lighting Chemiluminescence (PerkinElmer, Waltham, Mass.) and images captured by GE ImageQuant LAS 4000 (GE Healthcare Biosciences, Pittsburgh, Pa.).
# [8] = tested on: P4 LNC; assay: Notch signaling and transcript expression in P4 LNC on plastic, 3D Matrigel or immobilized HC-HA/PTX3
# [9] = tested on: LEPC and LNC; assay: Blocking Notch signaling in LEPC+LNC on immobilized HC-HA/PTX3
# Description: FIGS. 41A-41C illustrate blocking Notch signaling inhibits BMP and non-canonical Wnt in LEPC and LNC on immobilized HC-HA/PTX3 at 48 hours. FIG. 41A illustrates a graph of mRNA levels of various genes following treatment of HC-HA/PTX3 and HC-HA/PTX3/DAPT in LNCS renunioned with LEPC. FIG. 41B illustrates immunostaining with various markers.
molecule,measurement,setting,value
hyaluronic acid [HA],cell proliferation (Edu nuclear staining),[1],promoted cell proliferation
same,cell aggregation as early as 60 min,[2],not
same,nuclear PP2A C subunit,"[3]; 5 and 30 min, comparators entire 60 min",significantly less expression
same,CXCR4 localisation,"[3]; HC-HA/PTX3: as early as 15 min, prominent at 30 min, no longer nuclear at 60 min",membrane translocation
same,staining of HIF1α and HIF1β,"[3]; HC-HA/PTX3: at 5 min, HIF1α sustained till 15 and 30 min",both cytoplasmic and nuclear
same,nuclear p-PHD2 (serine 125),"[3]; HC-HA/PTX3 at 5 and 15 min, HA and 3D MG throughout 60 min",maintained nuclear Phospho-PHD2
same,earliest nucleus Hes1,[3]; P10 LNC,15 min
same,HIF2α,[4],No changes
same,NICD and SDF1,[4],No changed
same,time of HIF1α nuclear translocation,[4],did the same
same,time of HIF1β nuclear translocation,[4],5 to 30 min
same,time of Hes1 nuclear translocation,[4],5 to 15 min
same,CXCR4 nuclear translocation,"[4]; 5, 30 min, transient",does not
same,Rac1 GTPase activities,[5],gradual decline
c1cc(CN2CCCNCCNCCCNCC2)ccc1CN1CCCNCCNCCCNCC1 [AMD3100],HIF-1α and HIF-1β transcripts,[6]; addition of AMD3100,upregulated two peaks
same,"transcript levels of BMP2, BMP4 and BMP6, effect of inhibitor","[6]; throughout 48 h, with soluble HC-HA/PTX3",aborted
same,"Pax6, p75NTR, NGF, Musashi-1, Msx-1 and FoxD3 transcripts, effect of inhibitor",[6]; with soluble HC-HA/PTX3,significant downregulation
same,CXCR4 staining,"[3]; 60 min period, P10 LNC, soluble HC-HA/PTX3 with or without AMD3100, or 3D MG",reverted to that of 3D MG
same,nuclear staining of pSmad1/5,"[3]; P10 LNC, soluble HC-HA/PTX3 with or without AMD3100",absent nuclear staining
same,immunofluorescence of SDF-1,[3]; throughout 60 min,became negative
same,nuclear pSmad1/5,"[7]; 5, 15, 30 min",not promoted
same,CXCR4 and Pax6 protein in cytoplasmic and nuclear fractions,"[7]; 15 and 30 min, AMD3100 all time points",remain in cytoplasmic fraction
C[C@H](NC(=O)Cc1cc(F)cc(F)c1)C(=O)N[C@H](C(=O)OC(C)(C)C)c1ccccc1 [DAPT],"cell aggregation of LNC on HC-HA/PTX3, effect of inhibitor",[8],did not prevent
same,"Notch1/2/3/Jagged 1/Hes1 signaling with MET epithelial phenotype (p63α, Pax6, Sox9), effect of inhibitor",[8]; LNC on HC-HA/PTX3,further promoted
same,nuclear psmad/1/5/8 and c-Jun,[9]; LEPC+LNC on immobilized HC-HA/PTX3,absence
same,quiescence epithelium markers,"[9]; LEPC+LNC on immobilized HC-HA/PTX3, 48 hours",significantly downregulated
